Entries after “also recorded” stand apart in the source; their conditions may differ. Like-named read-outs stand apart in the source and are kept apart here.
How the values were obtained:
Format in all cases: cell-based, human
neural progenitors = test: Cyquant cell proliferation assay; conditions: increasing concentrations; assayed after 3, 6, 9 and 12 days of culture
Method: Cell proliferation in cultures treated with cell cycle and Notch pathway inhibitors were measured using the Cyquant™ Direct Cell Proliferation kit (Invitrogen). Briefly, 1×10^4 neural progenitors were plated per well in black, clear-bottomed 96 well plates (Nunclon) pre-treated with matrigel and cultured in ADF medium supplemented with B27 and small molecule inhibitors such as PD0332991 or DAPT (FIG. 2). Plates were processed according to the manufacturer's instructions and fluorescence Cyquant measurements were taken from triplicate cells on days 3, 6, 9 and 12 of culture using a FLUOstar Optima™ plate reader (BMG Labtech) using FITC (480 nm excitation/535 nm emission) filters in a bottom read fluorescence mode. Each measurement was calibrated by using blank suppression dye as a blank to remove background fluorescence.

[1] = test system: neural progenitor cultures; test: Ki67 immunocytochemistry of neural progenitor cultures; conditions: for Ki67 immunoreactivity: 2 μM PD0332991 or 10 μM DAPT, 3 and 7 days after plating
Method: Cells grown on coverslips as described above were fixed with 4% paraformaldehyde at room temperature for 15 minutes. Cells were permeabilised (0.1% Triton X-100 in phosphate buffered saline) for 20 minutes at room temperature, then blocked in blocking solution (2% normal goat serum, 3% bovine serum albumin, 0.1% Triton X-100 in phosphate buffered saline for one hour. Cells were incubated with primary antibodies (rabbit anti-FOXG1, mouse anti-Sox2 (Abcam), mouse anti-ZOI (Abcam), mouse anti-Nestin (Abcam) anti-KI67 (Sigma) and anti-βIII-Tubulin (Sigma) diluted in the same buffer overnight at 4° C. Coverslips were then washed in 0.1% Triton X-100 in phosphate buffered saline 3 times for 5 minutes each and incubated with secondary antibodies (Goat anti-rabbit alexa 594 or Goat anti-mouse 488 secondary antibodies (1:400, Sigma), as appropriate diluted in blocking buffer. Coverslips were washed as above, mounted onto slides using Vectashield with DAPI and imaged using a Olympus BX61 fluorescence microscope.

hPSC-derived neurons = test: Fura-2 Ca2+ imaging; conditions: 15 s; for intracellular Ca2+ response to glutamate receptor agonists: 100 micromolar agonist (NMDA plus 10 micromolar glycine)
Method: A. Exemplar time-course of Fura 2 fluorescence recording of intracellular Ca^2+ concentration in a neuron derived from hPSCs differentiated using the protocol. At each arrow, the cell was exposed sequentially for 15 s to the following solutions: ECS with high potassium chloride concentration (50 mM, isoosmotically replacing NaCl) to evoke a cell depolarization; […] ECS with low sodium chloride concentration (15 mM final, isoosmotically replaced by sodium isethionate) with 300 microM GABA, ECS containing 100 micromolar NMDA plus 10 micromolar glycine; […] The ratiometric Ca^2+ sensitive dye Fura-2-AM (Molecular Probes, Eugene, Oreg., USA) was used for Ca^2+ imaging experiments. This dye was purchased as a dry powder in 50 μg aliquots. Before use, these aliquots were dissolved in 50 μl DMSO (Sigma) by vortex. They were then incubated at 37° C. for 1 h to ensure the dye was fully dissolved. 1 μl of the 1 mg/ml Fura-2-AM stock was added to 250 μl of normal cell growth media and mixed. Cells on glass coverslips were then added to the well and incubated for 30 min at 37° C. and 5% CO2 in a humidified tissue culture incubator. Both stocks and media containing the dye were stored out of direct light to prevent photo-bleaching of the dye. This incubation allowed for Fura-2-AM to be taken up by the cells, cleaved and turned into the active dye Fura-2. Fura-2-loaded cells were placed in a specialised perfusion chamber, designed to allow direct access of the microscope oil-immersion lens with the bottom of the coverslip, mounted upon an Olympus IX71 equipped with a Cairn monochromator-based fluorescence system (Cairn Instruments, Faversham, UK) and were continuously superfused with ECS. Imaging was performed at room temperature. Fura-2 was alternately excited using fluorescence light emitted from the monochromator at 340 and 380 nm. Images at 510 nm were acquired at 0.33 or 0.2 Hz by a slow-scan CCD camera (Kinetic Imaging Ltd, Nottingham, UK). Solutions, agonists and antagonists were locally applied to the cells using the gravity-driven rapid solution changer. Raw data, in the form of emission intensities at 510 nm, during alternate excitation at 340 or 380 nm, were recorded and stored. Following background subtraction, emission ratios (340/380) were calculated off-line using Microsoft Office Excel (Microsoft, Redmond, Wash., US). Where indicated, data were normalised to the first 10 frames to allow further analysis and for comparisons.

iPS-derived neurons = test: Whole-cell patch-clamp, current clamp: spontaneous action potentials and resting Vm
Text: Ag/AgCl electrodes for patch-clamp were produced by leaving pure silver wire in bleach overnight. An Ag/AgCl pellet (Clark Electromedical Instruments) connected to the patch-clamp headstage was used as the bath (reference) electrode. Thin-walled, filamented, borosilicate glass tubes (World-Precision Instruments, UK) were pulled using a two-stage pipette puller (PP-830, Narishige, Japan) to give patch pipettes with a measured tip resistance of 3-6 MΩ when filled with the internal pipette solution. These pipettes were used to establish whole-cell configuration of the patch clamp technique.
Whole-cell patch-clamp was performed at room temperature. Plated down cells grown on glass coverslips were transferred into a perfusion chamber mounted on the stage of an inverted microscope equipped with phase-contrast optics mounted inside a Faraday cage on an anti-vibration air table (Wentworth Laboratories Ltd., Oxford, UK). Continuous perfusion of the cells with ECS was maintained by a gravity-fed system using a 50 mL disposable syringe as a reservoir. Continuous perfusion was maintained at a rate of approximately 2-4 ml per minute. A gravity-fed rapid solution changer (RSC, RSC-200, Bio-Logic, France) was used to apply various solutions directly to the cells when required allowing for solution changes as fast as 20 ms. Waste solution was removed via vacuum suction through a flame-pulled glass tube connected to a waste Buchner flask with Tygon tubing.
Current-clamp was used to apply current protocols, generated using Axon Laboratory's pClamp 9 software to the patched cell. These were recorded on-line for further analysis using the pClamp software. Offline data review and analysis was performed using Axon Laboratory's Clampfit 9, Microsoft Office Excel and Prism6. Spontaneous action potentials (sAPs): Cells were held in current clamp with zero current injection for recording of resting membrane potentials (Vm) and observation of any spontaneous action potentials. Recordings were made using the ‘Gap free’ protocol immediately after whole-cell access to reduce the effect of the pipette ICS dialysing with the actual cytosolic solution and thus influencing the resting membrane potential. Recordings were made for approx. 60 s for a mean calculation of Vm and to allow for spontaneous action potentials to be recorded.
Data from the current step protocols were analysed in Clampfit and exported to Excel for further processing. The average Vm during a 60 s ‘Gap Free’ recording in current clamp was taken as the resting membrane potential. In cells displaying spontaneous activity, an estimation of the baseline was made from the trace.

[2] = 1.8 mM Ca2+ or 300 μM GABA vs control medium (0.6 mM Ca2+), weeks 1 and 2

CC(=O)c1c(C)c2cnc(Nc3ccc(N4CCNCC4)cn3)nc2n(C2CCCC2)c1=O [PD0332991]
cell proliferation (relative Cyquant fluorescence, proportional to cell number) (neural progenitors): concentration-dependent growth arrest; also recorded: inhibit neural progenitor proliferation
Ki67 immunoreactivity [1]: complete loss of Ki67 immunopositive cells

NCCCC(=O)O [GABA, γ-aminobutyric acid]
intracellular Ca2+ response to GABA in high chloride (hPSC-derived neurons; 300 microM GABA in ECS): all neurons responded to GABA in high chloride
intracellular Ca2+ response to GABA in low chloride (hPSC-derived neurons; 300 microM GABA, low chloride ECS): few cells responded to GABA in low chloride
rescue of Vm (iPS-derived neurons): evoked a hyperpolarisation
mean resting Vm (iPS-derived neurons; [2]): as effective as the increased extracellular Ca^2+
proportion of cells generating spontaneous activity (iPS-derived neurons; [2]): as effective as the increased extracellular Ca^2+; also recorded: partially mimic the effects of ACM

C[C@H](NC(=O)Cc1cc(F)cc(F)c1)C(=O)N[C@H](C(=O)OC(C)(C)C)c1ccccc1 [DAPT, N-[N-(3,5-Difluorophenacetyl)-L-alanyl]-S-phenylglycine t-butyl ester]
cell proliferation (relative Cyquant fluorescence, proportional to cell number) (neural progenitors): reduces cell proliferation; also recorded: inhibit neural progenitor proliferation
Ki67 immunoreactivity [1]: more progressive loss of Ki67 immunostaining
synchronisation of cell cycle exit and differentiation ([1]; DAPT treatment alone): insufficient to synchronise cell cycle exit and differentiation

Cc1o[nH]c(=O)c1CC(N)C(=O)O (stereo not drawn) [AMPA]
intracellular Ca2+ response to glutamate receptor agonists (hPSC-derived neurons): all cells responded similarly

CN[C@H](CC(=O)O)C(=O)O [NDMA]
intracellular Ca2+ response to glutamate receptor agonists (hPSC-derived neurons): all cells responded similarly

SNX-482
ACM-evoked hyperpolarization (mean Vm) (iPS-derived neurons): abolished

[Ca+2].[Cl-].[Cl-] [Ca^2+, Calcium Chloride]
mean resting Vm (iPS-derived neurons): significant hyperpolarisation of mean resting Vm; also recorded: hyperpolarized the Vm
proportion of cells generating spontaneous activity (iPS-derived neurons): enhancement in the proportion of cells generating spontaneous activity; also recorded: increase in spontaneous activity; also recorded: partially mimic the effects of ACM
